In ChEMBL document CHEMBL1147673, “NO-donor phenols: a new class of products endowed with antioxidant and vasodilator properties” (J Med Chem, 2006):

Legend:
[1] = tested on: Radical scavenging activity; assay: Antioxidant activity assessed as inhibition of TBARS production in ferrous salt/ascorbate-induced lipid peroxidation in Wistar rat liver microsomal membrane; format: functional, microsomes
[2] = tested on: Radical scavenging activity; assay: Antioxidant activity assessed as inhibition of TBARS production in ferrous salt/ascorbate-induced lipid peroxidation in Wistar rat liver microsomal membrane at 1 mM; format: functional, microsomes
[3] = target: T1, Alpha-1D adrenergic receptor (Rattus norvegicus) (UniProt P23944); assay: Vasodilator activity assessed as ability to relax phenylephrine-induced contraction of Wistar rat aortic strips at 30 uM in presence of 1 uM ODQ; format: functional, tissue-based; parameters: scale not given: the % may be the effect or the level left; conditions: Aorta
T1 sequence (whole entry): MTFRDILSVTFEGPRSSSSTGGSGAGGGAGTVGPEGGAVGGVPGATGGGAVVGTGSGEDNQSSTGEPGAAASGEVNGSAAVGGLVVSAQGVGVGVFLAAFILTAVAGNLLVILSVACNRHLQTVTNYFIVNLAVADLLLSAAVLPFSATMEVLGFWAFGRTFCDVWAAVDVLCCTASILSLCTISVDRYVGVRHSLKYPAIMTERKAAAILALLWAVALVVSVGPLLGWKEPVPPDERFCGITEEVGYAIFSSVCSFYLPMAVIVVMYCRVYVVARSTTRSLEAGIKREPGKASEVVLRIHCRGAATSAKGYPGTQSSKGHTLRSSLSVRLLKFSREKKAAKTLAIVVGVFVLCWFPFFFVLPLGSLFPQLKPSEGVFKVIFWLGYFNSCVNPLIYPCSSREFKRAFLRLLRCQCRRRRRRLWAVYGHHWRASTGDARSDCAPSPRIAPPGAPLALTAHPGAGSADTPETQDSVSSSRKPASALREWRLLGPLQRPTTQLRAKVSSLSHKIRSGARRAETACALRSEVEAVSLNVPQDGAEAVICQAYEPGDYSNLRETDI

Compound	IC50 [1] [nM]	IC50 [2]	Activity [3] [%]
Cc1c(C)c2c(c(C)c1O)CCC(C)(COc1no[n+]([O-])c1S(=O)(=O)c1ccccc1)O2 (stereo unspecified)	490		
COc1cc(CCCO[N+](=O)[O-])cc(OC)c1O	5900		
Cc1c(C)c2c(c(C)c1O)CCC(C)(C)O2 [APC-100]	170		
O=[N+]([O-])OCC(Cc1ccc(O)cc1)[N+](=O)[O-] (stereo unspecified)	185000		
O=S(=O)(c1ccccc1)c1c(OCCCc2ccc(O)cc2)no[n+]1[O-]	47000		
COc1cc(C)cc(OC)c1O	18000		
CC(C)(C)c1cc(CCCO[N+](=O)[O-])cc(C(C)(C)C)c1O	2000		
COc1cc(CCCOc2no[n+]([O-])c2S(=O)(=O)c2ccccc2)cc(OC)c1O	3400		
Cc1c(C)c2c(c(C)c1O)CCC(C)(COCCCO[N+](=O)[O-])O2 (stereo unspecified)	150		
CCOc1no[n+]([O-])c1S(=O)(=O)c1ccccc1	110000		
NC(=O)c1c(CO)no[n+]1[O-]		Not Active	
CN(CCCc1cc(C(C)(C)C)c(O)c(C(C)(C)C)c1)Cc1no[n+]([O-])c1C(N)=O	1200		
CC(C)(C)c1cc(CC(CO[N+](=O)[O-])[N+](=O)[O-])cc(C(C)(C)C)c1O (stereo unspecified)	2600		24
CN(C)Cc1no[n+]([O-])c1C(N)=O		Not Active	
COc1cc(CC(CO[N+](=O)[O-])[N+](=O)[O-])cc(OC)c1O (stereo unspecified)	5400		
CC(C)(C)c1cc(CCCOc2no[n+]([O-])c2S(=O)(=O)c2ccccc2)cc(C(C)(C)C)c1O	2000		
O=[N+]([O-])OCCCc1ccc(O)cc1	143000		
Cc1ccc(O)cc1 [p-CRESOL]	290000		
Cc1cc(C(C)(C)C)c(O)c(C(C)(C)C)c1 [BUTYLATED HYDROXYTOLUENE]	1700		
Cc1c(C)c2c(c(C)c1O)CCC(C)(CN(C)Cc1no[n+]([O-])c1C(N)=O)O2 (stereo unspecified)	140		
